Measured values reported in paper PMC6328429, “Synthesis of a benzoxazinthione derivative of tanaproget and pharmacological evaluation for PET imaging of PR expression” (EJNMMI Radiopharmacy and Chemistry, 2019).
Values joined by “and” are separate entries in the source; they are usually repeats but may differ in a detail not shown here. Equal values may be shown once. “Also recorded” adds a separate entry of the source. Read-outs that look alike come from different tables or passages of the source.

What was measured:
[1] = Distribution coefficient analysis (LogD7.4), n-octanol/PBS; format: physicochemical
Experimental: Radioligand [^18F]2 (0.03 MBq, 1 μL, in EtOH) was mixed with PBS (500 μL) and n-octanol (500 μL). The sample was vortexed (10 min) followed by centrifugation (1×g, 10 min). Three aliquots (100 μL) from each layer were taken and counts measured using a 2480 WIZARD2 Automatic Gamma Counter (PerkinElmer, UK). Experiment was repeated in triplicate in n = 3 determinations (supporting information, Additional file 1: Table S1). Distribution coefficient (LogD7.4) was calculated as the logarithm of the ratio between CPM of the octanol and buffer phase.

T47D cells = assay: Cell uptake study of radioligand in breast cancer cell lines; format: cell-based, human
Experimental: T47D, MCF-7 and MDA-MB-231 cells (1 × 10^5) were plated into 6-well plates and used for receptor binding assays at 60–80% confluence. Cell medium was removed and cells were washed with cold PBS buffer. [^18F]2 (37 kBq/mL) was added to individual wells and cells were incubated at 37 °C in a humidified atmosphere of 5% CO2 for 60 min. Cells were co-incubated with 0.01–1 μM of cold progesterone for the blocking study. Cells were then washed 3 times with ice-cold PBS and lysed with RIPA buffer. Radioactivity was determined using a gamma spectrometer (Automatic Gamma counter, Wizard 3 Wallac). Radioactivity was normalised to protein content determined using a BCA 96-well plate assay (Thermo Fisher Scientific Inc., USA) and expressed as a percentage of total radioactivity per mg of protein.

[2] = Ex vivo biodistribution in C57BL/6 female mice; settings: 50 min p.i.
Experimental: Pubertal female C57BL/6 mice were injected intraperitoneally with 30 IU gonadotropins, 15 IU Follicle-stimulating hormone (FSH) and 15 IU luteinizing hormone (LH) followed by 5 IU […] (hCG) after 48 h (Sigma-Aldrich, Gillingham, UK). After the imaging studies, the ovaries were removed and snap-frozen in liquid nitrogen for later analysis of protein expression by western blot.
[^18F]2 (455 ± 62 kBq) was injected into the tail vail of female C57BL/6 mice. Whilst under anaesthesia the animals were sacrificed and tissues of interest such as, heart, lung, liver, spleen, kidneys, stomach, muscle, bone, ovary, small intestines and large intestines were collected in pre-weighed counting tubes. Radioactivity within tissue samples was counted in a gamma spectrometer (Automatic Gamma Counter, Wizard 3 Wallac), and then weighed to determine the mass of the tissue. CPM for each tissue sample was normalised to the total injected dose of radioactivity to the animal to give %ID (injected dose), and then normalised to the weight of the counted tissue to give the radioactivity uptake of the tissue as %ID/g. Tabulated values shown in Additional file 1: Table S2.

[3] = Dynamic PET/CT imaging in C57BL/6 female mice; format: in vivo; settings: PET images acquired over 50 min
Experimental: Mice were anaesthetised with 3–5% isoflurane at a flow rate of 1 L/min, and then reduced to 1.5–2% isoflurane for anaesthesia maintenance during imaging. [^18F]2 was injected via the tail vein at the commencement of a dynamic PET scan using a dedicated small animal PET/CT scanner (Sedecal SuperArgus2R, Sedecal, Spain). Images were acquired over a 50 min imaging sequence, followed by CT imaging acquired in 514 projections for anatomic coregistration. PET emission data were corrected for decay and dead time and reconstructed using 3D-OSEM. Data were analysed based on regions of interest (ROI) drawn within the tumours and tissue. Time-activity curves (TAC) were calculated as an average form the region of interest analysis of three mice (Additional file 1: Figure S34). Data was analysed using AMIDE software (Loening and Gambhir, [2003]) and VivoQuant (InVicro, MA, USA) and regions of interest (ROIs) were selected by hand, and the count densities were averaged for each frame to obtain a TAC for each ROI.

[4] = In vitro radioactive metabolite analysis in mouse liver microsomes; format: in vitro ADME; settings: MLM, 60 min, radio-HPLC integration
Experimental: Radioligand [^18F]2 (3 MBq, ca. 80 μL), mouse liver microsomes (50 μL, 1 mg/mL), NADPH regeneration system A (50 μL), NADPH regeneration system B (10 μL), PBS 0.5 M pH 7.5 (200 μL) and water (ca. 200 μL) were added to a plastic 1.5 mL tube. The mixture was incubated at 37 °C for 60 min and transferred into a plastic centrifuge tube (10 mL). Proteins were precipitated with ice-cold MeOH (2 mL) and the mixture was centrifuged (12,000 g, 3 min) to pellet the precipitate. The supernatant was removed, evaporated to dryness and the residue was suspended in 37% MeCN + 0.1%TFA / 63% Water + 0.1%TFA for RP-HPLC using gradient 3 (supporting information, section 10.3). The experiment was performed in n = 3 determinations. Extraction efficiency of radioactivity from the protein pellet was calculated to be 93.5% ± 1.6 (Additional file 1: Table S3). HPLC data is shown in the supporting information (Additional file 1: Figure S35).

[5] = Stability of formulated radioligand; format: physicochemical; settings: up to 4 h after formulation; 10% (v/v) EtOH/PBS
[6] = PR-induced (PR+, gonadotropin stimulated) mice, mean ± SEM

SMILES: CC1(C)OC(=S)Nc2ccc(-c3cccnc3[18F])cc21 [[^18F]2]
- logD ([1]; pH 7.4, PBS (pH 7.4) / octan-1-ol, three repeats in triplicate, read-out: Distribution coefficient (LogD7.4), mean ± SD): 1.69 ± 0.1
- logD ([1]; pH 7.4, single measurements (Run 1-3, a-c), read-out: LogD7.5): 1.67
- Uptake of radioligand in cell lines (T47D cells; T47D (PR++) compared to MCF7 (PR+) and MDA-MB-231 (PR-), 60 min, 37 °C): significant accumulation in T47D cells
- Uptake in T47D cells on co-incubation with progesterone (blocking) (T47D cells; T47D cells, progesterone 0.01–0.1 μM): decreased in a dose-dependent manner
- Bone uptake ratio, gonadotropin-stimulated vs control mice [2]: 2 fold
- Biodistribution, blood [2, 6]: 1.30 ± 0.30 %ID/g
- Biodistribution, bone [2, 6]: 31.21 ± 5.99 %ID/g
- Biodistribution, brain [2, 6]: 0.40 ± 0.09 %ID/g
- Biodistribution, heart [2, 6]: 1.47 ± 0.31 %ID/g
- Biodistribution, kidney [2, 6]: 3.89 ± 1.26 %ID/g
- Biodistribution, large intestine [2, 6]: 13.25 ± 1.70 %ID/g
- Biodistribution, liver [2, 6]: 14.48 ± 4.91 %ID/g
- Biodistribution, lungs [2, 6]: 1.33 ± 0.28 %ID/g
- Biodistribution, muscle [2, 6]: 1.55 ± 0.44 %ID/g
- Biodistribution, small intestine [2, 6]: 36.08 ± 1.21 %ID/g
- Biodistribution, spleen [2, 6]: 0.15 ± 0.06 %ID/g
- Biodistribution, stomach [2, 6]: 3.41 ± 0.26 %ID/g
- Biodistribution, urine [2, 6]: 12.93 ± 12.56 %ID/g
- Biodistribution, blood ([2]; control (PR-) mice, mean ± SEM): 0.01 ± 0.000 %ID/g
- Biodistribution, bone ([2]; control (PR-) mice, mean ± SEM): 15.37 ± 3.47 %ID/g
- Biodistribution, brain ([2]; control (PR-) mice, mean ± SEM): 0.41 ± 0.09 %ID/g
- Biodistribution, heart ([2]; control (PR-) mice, mean ± SEM): 1.40 ± 0.33 %ID/g
- Biodistribution, kidney ([2]; control (PR-) mice, mean ± SEM): 4.02 ± 1.18 %ID/g
- Biodistribution, large intestine ([2]; control (PR-) mice, mean ± SEM): 1.30 ± 0.07 %ID/g
- Biodistribution, liver ([2]; control (PR-) mice, mean ± SEM): 6.19 ± 1.74 %ID/g
- Biodistribution, lungs ([2]; control (PR-) mice, mean ± SEM): 1.28 ± 0.35 %ID/g
- Biodistribution, muscle ([2]; control (PR-) mice, mean ± SEM): 0.91 ± 0.19 %ID/g
- Biodistribution, ovary ([2]; control (PR-) mice, mean ± SEM): 1.32 ± 0.22 %ID/g
- Biodistribution, small intestine ([2]; control (PR-) mice, mean ± SEM): 30.49 ± 3.05 %ID/g
- Biodistribution, spleen ([2]; control (PR-) mice, mean ± SEM): 0.99 ± 0.28 %ID/g
- Biodistribution, stomach ([2]; control (PR-) mice, mean ± SEM): 0.73 ± 0.17 %ID/g
- Biodistribution, urine ([2]; control (PR-) mice, mean ± SEM): 10.94 ± 8.40 %ID/g
- Distribution of radioactivity in PET images [3]: Extensive skeletal uptake; also recorded: accumulation of radioactivity in the liver and small intestines, but also in the spine, joints and skull
- [^18F]2 parent (Rt = ca 12:21 min:sec), single run ([4]; individual runs / representative chromatogram): 33.3% and 36.3% and 36.6%
- [^18F]2 parent (Rt = ca 12:21 min:sec), mean ± SD ([4]; n = 3): 35.4 ± 1.8%
- Stability after formulation [5]: 99.7%
